For one data set, the system named is eye. The conditions noted are these: tested in the form of an isopropyl ester prodrug; cited from earlier work.
For data set [1], the system named is Normal human epithelial keratinocytes. The experiment in a line: Antiproliferative effect on cultured keratinocytes, crystal violet method, absorbance at 595 nm. Type of data set: cell-based. Particulars: for antiproliferative potency relative to PGA2 and the other analogues: normal human epithelial keratinocytes, 7 days incubation, FIG. 1-4. How it is done: Normal human epithelial keratinocytes, and keratinocyte growth medium (KGM^R-2 Bulletkit; CC-3107 from Clonetics, USA) were purchased from Göteborgs Termometerfabrik AB (Västra Frölunda, Sweden). The cells were cultured at 37° C. in 5% CO2 humidified air according to standard procedure. The cells used for the experiments were at the third passage. 48-well plates were used for the cultures. In each well about 3000 cells were seeded. For each concentration of prostaglandin analogues two wells were used. After completion of the incubation, the wells were washed twice with phosphate buffered saline (PBS). Thereafter the cells were fixed with 1% glutaraldehyde in PBS at +4° C. for 15 min. The wells were then again washed twice with PBS, and thereafter treated with 0.1% crystal violet solution (500 μl/well). The wells were then rinsed with distilled water for 15 sec, three times, and were left to dry completely. The absorbed colour was solubilized in 500 μl 2.5% sodiumdodecyl-sulphate (SDS) in distilled water for 3 hours. The absorbance of the fluid in the wells was determined using a microtiter well spectrophotometer (Multiscan RC V1.3-0) at 595 nm. The experiments were performed in duplicate (two wells). The incubation time was 7 days, and the incubation medium was changed after 3-4 days. The prostaglandin analogues were dissolved directly in the incubation medium. After appropriate incubation the density of cells in the wells was determined using the crystal violet method described above.

The subject of data set [2] is BAX gene expression (BAX-protein) in human keratinocytes. The experiment in a line: Expression of the pro-apoptotic BAX gene by immunocytochemistry. Type of data set: cell-based. How it is done: The cells, cultivated essentially as described above, were trypsinized, the solution centrifuged, and the pellet resuspended and transferred to a microscopic slide with cover slip. Immunocytochemistry was performed according to standard technique. BAX (N-20)-affinity purified rabbit polyclonal antibodies were purchased from Santa Cruz Biotechnology Inc. (Santa Cruz, Calif.), and used at a dilution of 1:200. Secondary goat-antirabbit antibodies conjugated to horseradish peroxidase (Dako Envision+TM) obtained from Dako (Carpinteria, Calif., USA) were used for detecting the primary antibodies. After appropriate rinsing the preparations were incubated with […] as chromogenic substrate for the horseradish peroxidase for 10 min at room temperature. […] The preparations were finally examined in a Nikon FTX fluorescence microscope equipped with camera, and colour photographs were taken of representative cells.
In another set of experiments, intravital staining for detection of apoptosis/necrosis in keratinocytes cultivated as above in the absence and presence of BR280 (17-phenyl-18,19,20-trinor-PGA2) was performed with propidium-iodide/Hoechst 33342 (bisbenzimide) purchased from Sigma Chemical Company (St. Louis, Mo.). […] The cells were examined in a Nikon FTX fluorescence microscope equipped with a UV-2A filter and camera. […]

The test system of the next data set is human eye. The experiment in a line: Hyperemia/irritation test using the human eye as a model. Particulars: for hyperemia and ocular irritation or pain after application (in words): human eye, topical, 3 individuals, about 10^−4 M and about 3×10^−4 M; for Difference in irritation PGA2 - JB991 acid / Difference in hyperemia PGA2 - JB991 acid: topical on eye, n = 3; for Difference in irritation PGA2 - JB991 acid: categorical scale, Mean ± SEM; for Difference in hyperemia PGA2 - JB991 acid: scale 0-3, Mean ± SEM. Format: in vivo. How it is done: PGA2 and 17-phenyl-18,19,20-trinor-PGA2, synthesized as described above, were formulated in vehicles suitable for hyperemia/irritation tests using the human eye as a model. The superficial redness of the eyes was documented by colour photographs before, and 15, 30, 60 and 120 min after application of the test substances. One eye was treated with the prostaglandin analogue and the other eye with the vehicle only. Ocular irritation or pain was recorded at the same time points. The two test substances at a concentration of 26 μg/ml (about 10^−4 M) were tested in the same eye of three healthy individuals a few days apart.
About a week later, a higher concentration of each compound, 84 μg/ml of PGA2 and 96 μg/ml of 17-phenyl-18,19,20-trinor-PGA2 (both concentrations corresponding to about 3×10^−4 M) was again tested a few days apart in the same eyes of the same individuals. The concentrations used are relevant since for the treatment of psoriasis the drugs have to be used at approximately this concentration range. The hyperemia was evaluated on a scale from 0 (no hyperemia) to 3 (maximum hyperemia) using half steps. A similar categorical scale was used for the ocular irritation or pain. […]

The subject of another data set is human keratinocytes. The experiment in a line: Intravital staining with propidium-iodide/Hoechst 33342 for apoptosis/necrosis. Type of data set: cell-based. Particulars: keratinocytes exposed for 7 days. How it is done:
In another set of experiments, intravital staining for detection of apoptosis/necrosis in keratinocytes cultivated as above in the absence and presence of BR280 (17-phenyl-18,19,20-trinor-PGA2) was performed with propidium-iodide/Hoechst 33342 (bisbenzimide) purchased from Sigma Chemical Company (St. Louis, Mo.). A mixture of propidium-iodide (10 μg/ml) and Hoechst 33342 (5 μg/ml) was added to the culture medium. The cells were incubated in the medium for 10 min at 37° C. The medium was harvested for free floating cells while the attached cells were washed once with Ca^++/Mg^++ free Hanks solution (Sigma Chemical Company), or PBS. Thereafter 1.5 ml of a 0.5% trypsin/EDTA solution (Ca^++/Mg^++ free Hanks solution, or PBS) was added and incubation was carried out for 5 min at 37° C. The solution was then centrifuged for 1 min (500 g). The pellet was resuspended in 0.5 ml PBS, and the solution was centrifuged as above. The pellet was then suspended in 20 μl PBS, and the solution containing the cells was placed on a microscopic slide with cover slip. The cells were examined in a Nikon FTX fluorescence microscope equipped with a UV-2A filter and camera. Colour photographs were taken of representative cells. The prostaglandin analogue (BR280) was diluted directly in the culture medium. […]

[3] abbreviates: Dose 2 (84 μg/ml; JB991 acid 96 μg/ml), 0 min.
[4] abbreviates: Dose 2 (84 μg/ml; JB991 acid 96 μg/ml), 15 min.
The mark [5] stands for this setting: Dose 2 (84 μg/ml; JB991 acid 96 μg/ml), 30 min.
Where [6] appears, read: Dose 2 (84 μg/ml; JB991 acid 96 μg/ml), 60 min.
The mark [7] stands for this setting: Dose 2 (84 μg/ml; JB991 acid 96 μg/ml), 120 min.

Consider `O=C(O)CCC/C=C\CC1C(=O)C=CC1CCC(O)CCc1ccccc1` (stereo not drawn), for which the “hyperemia in the eye” value in the data set with eye is reported as “caused some hyperemia in the eye”.

Regarding `O=C(O)CCC/C=C\CC1C(=O)C=CC1/C=C/C(O)COc1cccc(C(F)(F)F)c1` (stereo not drawn) [BR277, 16-phenoxy-(3-trifluormethyl)-17,18,19,20-tetranor-PGA2], the “antiproliferative potency relative to PGA2 and the other analogues” value in data set [1] was “next most potent of the PGA2 analogues”.

As to `O=C(O)CCC/C=C\CC1C(=O)C=CC1CCC(O)CCc1ccccc1` (stereo not drawn) [BR278, 13,14-dihydro-17-phenyl-18,19,20-trinor-PGA2], the “antiproliferative potency relative to PGA2 and the other analogues” value in data set [1] is recorded as “lowest potency”.

Turning to `O=C(O)CCC/C=C\CC1C(=O)C=CC1/C=C/C(O)CCc1ccccc1` (stereo not drawn) [BR280, 17-phenyl-18,19,20-trinor-PGA2], the “BAX gene expression (BAX-protein) immunostaining” value in data set [2] (human keratinocytes exposed at different concentrations, 2 days incubation) was “could be demonstrated”. Moreover, in data set [2] (lower concentrations than 10^−5 M), the “BAX gene expression effect at low concentrations” value was “weak or absent”. Moreover, the “hyperemia and ocular irritation or pain after application (in words)” value with human eye is reported as “no hyperemic effect or irritative effect whatsoever”. Also, in data set [1], the “antiproliferative potency relative to PGA2 and the other analogues” value is reported as “even more potent than PGA2”. Besides, the “signs of apoptosis by intravital staining” value in the data set on human keratinocytes was “Markedly condensed and fragmented nuclei and apoptotic bodies could be demonstrated”.

In the case of `CCCCC[C@H](O)/C=C/[C@H]1C=CC(=O)[C@@H]1C/C=C\CCCC(=O)O` [PGA2, prostaglandin A2], the “Difference in irritation PGA2 - JB991 acid” value with human eye (Dose 1 (26 μg/ml), 0 min) is on record as 0.00 ± 0.00; in the data set on human eye (Dose 1 (26 μg/ml), 15 min), 1.00 ± 0.29; in the data set with human eye (Dose 1 (26 μg/ml), 30 min), 1.17 ± 0.33; in the data set with human eye (Dose 1 (26 μg/ml), 60 min), 0.50 ± 0.29; in the data set with human eye (Dose 1 (26 μg/ml), 120 min), 0.17 ± 0.17; in the data set with human eye (setting [3]) it was 0.00 ± 0.00. Moreover, the “Difference in irritation PGA2 - JB991 acid” value in the data set on human eye (setting [4]) is 1.83 ± 0.44 *); in the data set with human eye (setting [5]), 1.33 ± 0.60; with human eye (setting [6]) it was 0.83 ± 0.44; with human eye (setting [7]), 0.33 ± 0.17. For the same molecule, the “Difference in hyperemia PGA2 - JB991 acid” value with human eye (Dose 1 (26 μg/ml), 0 min) was 0.00 ± 0.00; with human eye (Dose 1 (26 μg/ml), 15 min), 1.33 ± 0.60; in the data set on human eye (Dose 1 (26 μg/ml), 30 min), 1.17 ± 0.44; in the data set on human eye (Dose 1 (26 μg/ml), 60 min), 0.67 ± 0.44; in the data set with human eye (Dose 1 (26 μg/ml), 120 min) it was 0.17 ± 0.17; in the data set on human eye (setting [3]), 0.00 ± 0.00. Moreover, the “Difference in hyperemia PGA2 - JB991 acid” value is 2.17 ± 0.44 **) in the data set with human eye (setting [4]), 2.17 ± 0.44 **) in the data set with human eye (setting [5]), 1.33 ± 0.60 with human eye (setting [6]) and 0.50 ± 0.29 with human eye (setting [7]). Further, in the data set with human eye, the “hyperemia and ocular irritation or pain after application (in words)” value is “causes both these disadvantageous side-effects”. For the same molecule, the complete cell death result in data set [1] (highest concentration tested) is given as “Neither PGA2 nor any of the analogues tested were able to cause complete cell death”.

The values are drawn from patent US20060041016A1, “Composition and method for the treatment of psoriasis” (priority 2004, published 2006).
